ChEMBL document CHEMBL3714736, “Heterocyclic compounds for the inhibition of PASK” (2015)
Values belong to the molecule of their own block, whether it stands above or below them. Calls of active or inactive are those of the source. The rule behind the calls is not given here.

Legend:
Mus musculus [1] = test: Reduction in body weight in high-fat diet fed C57B16 mouse with fast/re-feed at 30 to 100 mg/kg, po daily for 3 days; type: functional, organism-based
Mus musculus [2] = test: Reduction in plasma glucose level in high-fat diet fed C57B16 mouse with fast/re-feed at 100 mg/kg, po daily for 3 days by colorimetric assay; type: functional; conditions: 72 h
Mus musculus [3] = test: Reduction in plasma insulin level in fasted fed C57B16 mouse at 30 mg/kg, po daily for 3 days by colorimetric assay; type: functional; conditions: 72 h
Mus musculus [4] = test: Reduction in plasma insulin level in high-fat diet fed C57B16 mouse with fast/re-feed at 30 to 100 mg/kg, po daily for 3 days by colorimetric assay; type: functional, organism-based
Rattus norvegicus [5] = test: Reduction in body weight in high fructose diet fed Sprague-Dawley rat with fast/re-feed at 30 and 100 mg/kg, po dosed once daily for 7 days; type: functional, organism-based
Mus musculus [6] = test: Reduction in liver weight in high-fat diet fed C57B16 mouse with fast/re-feed at 30 mg/kg, po daily for 3 days; type: functional
Rattus norvegicus [7] = test: Reduction in plasma cholesterol level in high fructose diet fed Sprague-Dawley rat with fast/re-feed at 30 and 100 mg/kg, po dosed once daily for 7 days by colorimetric assay; type: functional, organism-based
Mus musculus [8] = test: Reduction in liver weight in high-fat diet fed C57B16 mouse with fast/re-feed at 30 to 100 mg/kg, po daily for 3 days; type: functional
Mus musculus [9] = test: Reduction in liver weight in high-fat diet fed C57B16 mouse with fast/re-feed at 100 mg/kg, po daily for 3 days; type: functional; conditions: for inhibition in vivo at 100 mg/kg: 72 h
Rattus norvegicus [10] = test: Reduction in liver weight in high fructose diet fed Sprague-Dawley rat with fast/re-feed at 100 mg/kg, po dosed once daily for 7 days; type: functional; conditions: 168 h
Mus musculus [11] = test: Reduction in plasma glucose level in fasted C57B16 mouse at 30 to 100 mg/kg, po daily for 3 days by colorimetric assay; type: functional, organism-based
Rattus norvegicus [12] = test: Reduction in liver weight in high fructose diet fed Sprague-Dawley rat with fast/re-feed at 30 and 100 mg/kg, po dosed once daily for 7 days; type: functional, organism-based
Rattus norvegicus [13] = test: Reduction in plasma glucose level in high fructose diet fed Sprague-Dawley rat with fast/re-feed at 30 and 100 mg/kg, po dosed once daily for 7 days by colorimetric assay; type: functional, organism-based
Mus musculus [14] = test: Reduction in plasma glucose level in high-fat diet fed C57B16 mouse with fast/re-feed at 30 to 100 mg/kg, po daily for 3 days by colorimetric assay; type: functional, organism-based
Rattus norvegicus [15] = test: Reduction in plasma triglyceride level in high fructose diet fed Sprague-Dawley rat with fast/re-feed at 30 and 100 mg/kg, po dosed once daily for 7 days by colorimetric assay; type: functional, organism-based
Mus musculus [16] = test: Reduction in plasma insulin level in fasted fed C57B16 mouse at 100 mg/kg, po daily for 3 days by colorimetric assay; type: functional; conditions: 72 h
[17] = target: T1, PAS domain-containing serine/threonine-protein kinase (Homo sapiens, UniProt Q96RG2); test: Inhibition of human recombinant PASK using Ulight-peptide substrate incubated for 2 hrs by TR-FRET assay
[18] = target: T1, PAS domain-containing serine/threonine-protein kinase; test: Inhibition of N-terminal GST-tagged human recombinant PASK kinase domain (879 to 1323 residues) expressed in insect cells using MBP protein substrate incubated for 120 mins in presence of [33P]ATP by scintillation counting based radiochemical assay
Rattus norvegicus [19] = test: Increase in liver weight in high fructose diet fed Sprague-Dawley rat with fast/re-feed at 30 mg/kg, po dosed once daily for 7 days; type: ADME, organism-based; conditions: in vivo, 168 h
Rattus norvegicus [20] = test: Reduction in body weight in high fructose diet fed Sprague-Dawley rat with fast/re-feed at 30 mg/kg, po dosed once daily for 7 days; type: functional, organism-based
Rattus norvegicus [21] = test: Reduction in plasma glucose level in high fructose diet fed Sprague-Dawley rat with fast/re-feed at 30 mg/kg, po dosed once daily for 7 days by colorimetric assay; type: functional

T1 sequence (Q96RG2 whole entry, the tested form may be a part): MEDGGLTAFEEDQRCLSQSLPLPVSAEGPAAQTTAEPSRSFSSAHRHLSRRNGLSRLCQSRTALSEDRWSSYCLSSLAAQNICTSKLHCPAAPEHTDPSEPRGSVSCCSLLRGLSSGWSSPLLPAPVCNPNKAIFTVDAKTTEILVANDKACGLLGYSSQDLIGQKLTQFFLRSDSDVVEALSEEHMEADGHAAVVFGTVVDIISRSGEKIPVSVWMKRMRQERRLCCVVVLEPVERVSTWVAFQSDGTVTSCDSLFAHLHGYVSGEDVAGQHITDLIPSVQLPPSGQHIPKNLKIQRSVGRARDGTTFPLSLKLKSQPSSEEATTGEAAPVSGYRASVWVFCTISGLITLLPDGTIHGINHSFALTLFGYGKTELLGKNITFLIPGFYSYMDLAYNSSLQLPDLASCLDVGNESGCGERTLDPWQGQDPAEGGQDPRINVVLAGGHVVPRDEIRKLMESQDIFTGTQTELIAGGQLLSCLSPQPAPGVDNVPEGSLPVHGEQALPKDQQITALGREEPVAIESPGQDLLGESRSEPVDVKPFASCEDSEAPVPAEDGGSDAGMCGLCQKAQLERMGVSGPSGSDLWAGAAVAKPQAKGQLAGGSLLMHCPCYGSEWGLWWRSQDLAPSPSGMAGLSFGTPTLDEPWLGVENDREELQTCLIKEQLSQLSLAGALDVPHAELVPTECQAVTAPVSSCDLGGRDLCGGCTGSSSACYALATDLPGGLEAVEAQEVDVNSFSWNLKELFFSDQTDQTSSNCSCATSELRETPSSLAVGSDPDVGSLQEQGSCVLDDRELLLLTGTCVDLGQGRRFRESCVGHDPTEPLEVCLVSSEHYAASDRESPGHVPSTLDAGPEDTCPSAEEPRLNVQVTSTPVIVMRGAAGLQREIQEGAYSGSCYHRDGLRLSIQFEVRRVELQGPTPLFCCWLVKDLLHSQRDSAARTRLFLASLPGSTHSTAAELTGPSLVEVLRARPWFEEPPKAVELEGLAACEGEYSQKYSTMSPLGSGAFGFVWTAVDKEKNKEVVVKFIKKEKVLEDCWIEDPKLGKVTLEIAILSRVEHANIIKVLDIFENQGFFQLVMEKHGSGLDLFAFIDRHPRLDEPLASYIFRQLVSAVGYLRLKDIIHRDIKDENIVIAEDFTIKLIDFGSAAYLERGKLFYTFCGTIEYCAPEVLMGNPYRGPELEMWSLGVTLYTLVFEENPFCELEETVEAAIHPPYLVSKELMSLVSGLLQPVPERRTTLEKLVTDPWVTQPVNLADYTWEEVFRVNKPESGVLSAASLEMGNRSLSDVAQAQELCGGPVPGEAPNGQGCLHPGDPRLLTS

Structure (SMILES): CC(C)N(C)c1nc2cc(C(=O)O)ccc2nc1-c1ccc(F)cc1
inhibition (Mus musculus [1]): Dose-dependent effect
inhibition in vivo at 100 mg/kg (Mus musculus [2]): ≤ 27%
inhibition in vivo at 30 mg/kg (Mus musculus [3]): ≤ 26%
inhibition (Mus musculus [4]): Dose-dependent effect
inhibition (Rattus norvegicus [5]): Active
inhibition (Mus musculus [6]): Dose-dependent effect
inhibition in vivo at 30 mg/kg (Mus musculus [6]; 72 h): 7%
inhibition (Rattus norvegicus [7]): Active
inhibition (Mus musculus [8]): Dose-dependent effect
inhibition (INH) (Mus musculus [8]): 7%
inhibition (Mus musculus [9]): Dose-dependent effect
inhibition in vivo at 100 mg/kg (Mus musculus [9]): 7%
inhibition in vivo at 100 mg/kg (Rattus norvegicus [10]): 4%
inhibition (Mus musculus [11]): Dose-dependent effect
inhibition (Rattus norvegicus [12]): Active
inhibition (Rattus norvegicus [13]): Dose-dependent effect
inhibition (Mus musculus [14]): Dose-dependent effect
inhibition (Rattus norvegicus [15]): Dose-dependent effect
inhibition in vivo at 100 mg/kg (Mus musculus [16]): ≤ 26%

Structure (SMILES): CN(C1CCN(c2nc3cc(C(=O)O)ccc3nc2-c2ccccc2)CC1)S(C)(=O)=O
IC50 [18]: ≤ 10 µM

Structure (SMILES): O=C(O)c1ccc2nc(-c3ccc4c(c3)OCO4)c(N3CCCc4ccccc43)nc2c1
IC50 [17]: ≤ 10 µM

Further lines, with some results ahead:

IC50 [17]: ≤ 10 µM
Structure (SMILES): CC(C)N(C)c1nc2cc(C(=O)O)ccc2nc1-c1ccc2nccn2c1

Activity (Rattus norvegicus [19]): 15%
Structure (SMILES): CC(C)OC(=O)C1=CN(C(=O)c2ccc(F)c(F)c2)CC(C)(C)c2c1[nH]c1ccccc21 [TUROFEXORATE ISOPROPYL]
inhibition in vivo at 100 mg/kg (Mus musculus [9]): 7%
Activity (Rattus norvegicus [20]): inactive
inhibition (Rattus norvegicus [21]): inactive
